Patent publication US20240180153A1, “METHODS FOR MANAGING DISEASES IN CUT FLOWERS” (Niacet Corporation, priority 2022, published 2024)

How the values were obtained:
[1] = system: B. cinerea isolate PDRK3; assay: Botrytis blight severity on harvested petunia flowers after spray application; assay type: in vivo, Botrytis cinerea
Description: (§1) Calcium propionate concentrations were prepared by adding appropriate amounts in de-ionized water and tested in four separate experiments. Spray applications at 1.25%, 2.5%, and 5% (pH 7.7 and buffered with acetic acid to pH 6.5) (first experiment) and 0.5%, 0.75%, and 1% buffered with acetic acid to pH 6.5 (second experiment) were made on harvested open petunia flowers. Separately, spray applications at 0.1%, 0.2%, 0.3%, (third experiment) 0.5%, 0.75%, and 1% (fourth experiment) buffered with acetic acid to pH 6.5 were made on harvested open petunia flowers. Approximately 24 hours after spray applications, the flowers were arranged in humid chambers maintaining relative humidity of 98-100% and inoculated by spraying spore suspension (10^4 spores/ml) of B. cinerea isolate PDRK3 (Bennett et al. 2019). Fungicide applications and spore suspensions were misted onto flowers until runoff to completely cover the flower using a 4 oz clear PET plastic bullet bottle with white mist sprayer (The Cary Company, Addison, IL). The petunia flowers were evaluated 72 h after inoculation to observe botrytis blight severity and phytotoxicity using ratings from 0 to 8 scale based on the area of infected corolla (0=no infection; 8=complete necrosis), modified from Bennett (2019). Pydiflumethophen+fludioxonil (sold under the trademark MIRAVIS™ PRIME; Syngenta, Raleigh, NC) was used as a commercial fungicide control along with a non-inoculated and an inoculated control. Ten flowers were evaluated per treatment and the entire experiment was repeated twice.

[2] = system: cut roses; assay: Phytotoxicity on cut roses after submerging flower-head; assay type: in vivo, cultivar Orange Crush
Description: (§2) Calcium propionate concentrations of 0.1%, 0.2%, 0.3%, 0.5%, 0.75%, 1% (pH 6.0), were prepared and tested against Botrytis blight on cut roses. Treatments were applied by submerging flower-head of 15 sec in the solutions of the treatments and gently moving the flowers up and down to allow the petals to open and help the product get in touch with the most internal petals. Then, the flowers were placed vertically in open PVC boxes over heavy-duty thermoformed trays (Greenhouse Megastore, Danville, IL) containing 3 L of water. The boxes and trays were placed inside open humid chambers for 24 h, then the flowers were sprayed with a Botrytis cinerea spore suspension at 10^5 spores/ml from the previously characterized isolate S4GBR4O (Muñoz et al., 2019). The humid chambers were closed, and data collection of disease severity was taken 3, 5, and 7 days after the inoculation. Relative humidity in the humid chambers was maintained in a range of 97-100% which was verified using a psychrometer (RH300, Extech Instruments, Nashua, NH, US). Observational data on phytotoxicity symptoms were also collected. Additionally, an inoculated control, Pydiflumethophen+Fludioxonil (sold under the trademark MIRAVIS™ PRIME; Syngenta, Raleigh, NC), and a non-inoculated treatment were included in the evaluation. The experiment with CaP treatments of 0.5%, 0.75%, and 1% (pH 6.0) were conducted only once due to phytotoxicity issues. All lower dose treatments were performed twice.

[3] = system: Botrytis cinerea isolate S4GBR4O; assay: Botrytis blight severity on cut roses after submerging flower-head; assay type: in vivo
Description: as §2

[4] = system: petunia flowers; assay: Phytotoxicity on harvested petunia flowers after spray application; assay type: in vivo, Petuniaxhybrida 'Dreams burgundy picotee'
Description: as §1

[5] = system: C. siamense; assay: In-vitro mycelium growth inhibition on CaP-amended PDA; assay type: cell-based, Colletotrichum siamense
Description: (§3) A 10% buffered (pH 6.0) stock solution in autoclaved de-ionized water was used to prepare working calcium propionate solutions. Initially, five concentrations of 0, 1, 5, 25, and 100 ppm were screened for determining the effect of calcium propionate on fungal mycelia. Higher concentrations of 300, 900, 2700, and 8100 ppm were also tested in mycelium growth inhibition assays to determine EC50 values for isolates sensitive and resistant to FRAC codes 1, 2, 7, 9, 11, 12, 13, and 17 (i.e., benzimidazoles, quinone outside inhibitors, dicarboxamides, succinate dehydrogenases, phenylpyrroles, demethylation inhibitor fungicides, and anilinopyrimidines respectively).
(§4) To prepare different concentrations, calculated amount of stock solution was mixed in autoclaved (121 C for 20 mins) potato dextrose agar (PDA) after the media cooled down to appropriate temperature. […] Mycelium growth diameter was measured using a vernier caliper just before the mycelium growth of two colonies in the control media plate overlapped. […] Mycelium inhibition rates were calculated and EC50 values were determined. Additionally, the fungistatic activity of calcium propionate was determined at 8000 mg/L (0.8%; pH 6.0) concentration, buffered at pH 6 with acetic acid. […] Mycelium growth was recorded every 24 h using a vernier caliper until fungal mycelia in control treatments reached the 90 mm in diameter petri dish rim.

[6] = system: A. alternata; assay: as above; assay type: cell-based, Alternaria alternata
Description: as §3, §4

[7] = system: M. fructicola; assay: as above; assay type: cell-based, Monilinia fructicola; conditions: six isolates, pH 6.0, 25° C. dark
Description: as §3, §4

[8] = system: B. cinerea; assay: as above; assay type: cell-based, Botrytis cinerea; conditions: six isolates, pH 6.0, 25° C. dark
Description: as §3, §4

[9] = system: all four pathogens (B. cinerea, M. fructicola, A. alternata, C. siamense); assay: In-vitro mycelium growth inhibition, statements pooled over all four pathogens; assay type: cell-based
Description: as §3
To prepare different concentrations, calculated amount of stock solution was mixed in autoclaved (121 C for 20 mins) potato dextrose agar (PDA) after the media cooled down to appropriate temperature. Amended media with different CaP concentrations was poured in to 15×100 mm petri dishes (VWR International, LLC., Radnor, PA), and left to solidify. For mycelium growth, 5 mm plugs were obtained from the edges of freshly grown seven-day old cultures from all 24 isolates of different fungal genera including Alternaria sp., Botrytis sp., Colletotrichum sp., and Monilinia sp. (Table 1). Two culture plugs of each isolate were placed near opposite edges of individual CaP amended PDA media plates. The media plates with no CaP (0 ppm) served as control treatment. Inoculated plates were then incubated at 25° C. in dark for 7-10 days. Mycelium growth diameter was measured using a vernier caliper just before the mycelium growth of two colonies in the control media plate overlapped. […] Mycelium inhibition rates were calculated and EC50 values were determined. Additionally, the fungistatic activity of calcium propionate was determined at 8000 mg/L (0.8%; pH 6.0) concentration, buffered at pH 6 with acetic acid. […] Mycelium growth was recorded every 24 h using a vernier caliper until fungal mycelia in control treatments reached the 90 mm in diameter petri dish rim.

[10] = 8000 ppm (0.8%; pH 6.0), after 2-4 days, growth rate reaching untreated control
[11] = six isolates, amended PDA, pH 6.0, 25° C. dark

Q: With `CCC(=O)[O-].CCC(=O)[O-].[Ca+2]` [CaP, calcium propionate] as the molecule, how does the “control efficacy with increase in concentration” value ([1]; 0.75% to 1% (fourth experiment) and 0.1% to 0.3% (third experiment), pH 6.5) read?
A: did not correspond to an increase in control efficacy

Q: And the disease severity ([1]; experiment three, all CaP treatments 0.1%, 0.2%, 0.3% (pH 6.5))?
A: reduced disease severity

Q: And the “botrytis blight control compared to the 0.5% treatment” value ([1]; experiment two, 0.75% and 1.0% CaP (pH 6.5))?
A: significantly better control

Q: And the disease severity ([1]; experiment two, all CaP treatments 0.5%, 0.75%, 1% (pH 6.5))?
A: reduced disease severity

Q: What about the “botrytis blight control, lower pH vs higher pH treatment” value ([1]; first experiment, 1.25% CaP, pH 6.5 compared to pH 7.7) of the same molecule?
A: significantly better control

Q: And the “control efficacy with increase in concentration” value ([1]; first experiment, increase from 1.25% to 5%)?
A: did not correspond to an increase in control efficacy

Q: What about the “botrytis blight severity vs inoculated control” value ([1]; first experiment, spray 1.25%, 2.5%, and 5% (pH 6.5 and 7.7), 72 h after inoculation) of the same molecule?
A: reduced botrytis blight compared to the inoculated control

Q: What about the “botrytis blight severity vs inoculated control” value ([1]; third and fourth experiments, all CaP concentrations 0.1%-1% at pH 6.5) of the same molecule?
A: reduced botrytis blight compared to the inoculated control

Q: What about the phytotoxicity ([2]; 0.1% CaP (pH 6.0)) of the same molecule?
A: no to barely noticeable phytotoxicity

Q: What about the phytotoxicity symptoms ([2]; 0.3% and 0.2% CaP (pH 6.0)) of the same molecule?
A: minor symptoms of phytotoxicity

Q: What about the “size of phytotoxicity spots” value ([2]; 0.3% and 0.2% CaP (pH 6.0)) of the same molecule?
A: 1-2 mm

Q: And the phytotoxicity symptoms ([2]; 0.5% CaP (pH 6.0) and higher, rounded areas in outermost petals, discolored edges)?
A: phytotoxicity symptoms were observed

Q: And the “botrytis blight severity, difference to inoculated control” value ([3]; first rose experiment, 0.5%, 0.75%, and 1% CaP (pH 6.0))?
A: No statistical differences

Q: And the “efficacy against botrytis blight compared to grower standard” value ([3]; second rose experiment, 0.1% (pH 6.0) CaP)?
A: as effective as the grower standard Miravis Prime

Q: What about the “efficacy against botrytis blight compared to 0.3% CaP” value ([3]; second rose experiment, 0.1% CaP (pH 6.0)) of the same molecule?
A: significantly higher efficacy

Q: And the phytotoxicity ([4]; experiment three, 0.1% (pH 6.5))?
A: barely noticeable

Q: What about the “phytotoxicity, difference to untreated control” value ([4]; experiment three, 0.1% CaP (pH 6.5)) of the same molecule?
A: no significant difference

Q: What about the phytotoxicity ([4]; experiment three, lower concentrations 0.1%-0.3% (pH 6.5)) of the same molecule?
A: very little to no phytotoxicity

Q: And the phytotoxicity ([4]; experiment two, 0.5% (pH 6.5))?
A: barely noticeable

Q: And the phytotoxicity ([4]; experiment two, 0.75% and 1% (pH 6.5))?
A: noticeable phytotoxicity

Q: What about the “phytotoxicity (bleaching of petunia flower tissue)” value ([4]; first experiment, 1.25%, 2.5%, and 5% CaP (pH 6.5 and 7.7)) of the same molecule?
A: Evidence of phytotoxicity was observed

Q: What about the “phytotoxicity (bleaching of petunia flower tissue)” value ([4]; fourth experiment, 0.5%, 0.75%, and 1% CaP (pH 6.5), increased with increasing concentrations) of the same molecule?
A: Evidence of phytotoxicity was observed

Q: What about the “mycelium growth recovery after initial inhibition” value [5, 10] of the same molecule?
A: recovered quickly

Q: What about the “mean EC50 mycelium growth” value [5, 11] of the same molecule?
A: 1310.34 µg/mL

Q: What about the “mycelium growth recovery after initial inhibition” value [6, 10] of the same molecule?
A: recovered quickly

Q: What about the “mean EC50 mycelium growth” value [6, 11] of the same molecule?
A: 1354.87 µg/mL

Q: And the “mean EC50 mycelium growth” value [7]?
A: 618.25 µg/mL

Q: And the “mean EC50 mycelium growth” value [8]?
A: 527.77 µg/mL

Q: And the mycelium growth inhibition ([9]; 8000 ppm (0.8%; pH 6.0), after 2-4 days of incubation)?
A: ~100%

Q: What about the “maximum inhibition of fungal mycelium growth” value ([9]; CaP 1, 5, 25, and 100 mg/L, preliminary experiments) of the same molecule?
A: below 20%

Q: What about the “mean EC50 of fungicide-sensitive versus fungicide-resistant isolates” value ([9]; isolates sensitive vs resistant to commonly used FRAC groups) of the same molecule?
A: not significantly different
